“Also recorded” adds a separate entry of the source. {ppp} = triphosphate
Columns and labels:
Format in all cases: cell-based, Mouse (C57BL/6)
[1] = tested on: neonatal cardiac fibroblasts; experiment: qPCR of cardiomyocyte sarcomere (maturation) genes in miR combo reprogrammed fibroblasts; conditions: for cardiomyocyte maturation (expression of Actn2, Myh6, Tnni3, Cacna1c): miR combo or negmiR transfected, various concentrations of ICR for 4 days, gene expression at day 14
Method: (§1) Mouse (C57BL/6) neonatal cardiac fibroblasts were isolated from 2 day old mouse neonates according to the method outlined in Jayawardena et al. Following isolation fibroblasts were cultured in growth media containing DMEM (ATCC, Catalogue number 30-2002) supplemented with 15% v/v FBS (Thermo Scientific Hyclone Fetal bovine serum, Catalogue number SH30071.03, Lot number AXK49952) and 1% v/v penicillin/streptomycin (Gibco, Catalogue number 15140-122, 100 units Penicillin, 100 ug/ml Streptomycin). Fibroblasts were passaged once the cells had reached 70-80% confluence using 0.05% w/v trypsin (Gibco, Catalogue number 25300-054). Freshly isolated fibroblasts were labelled as Passage 0. Experiments were conducted with cells at passage 2. For all experiments, cells were seeded at 5000 cells/cm^2 in growth media. After 24 hours, the cells were transfected with transfection reagent alone (Dharmafect-I, ThermoScientific), with transfection reagent plus non-targeting microRNAs (negmiR), or with transfection reagent plus our previously reported combination of cardiac reprogramming microRNAs[9] (miR combo, miR-1, miR-133, miR-208, miR-499).
qPCR: Total RNA was extracted using Quick-RNA MiniPrep Kit according to the manufacturer's instructions (Zymo Research). Total RNA (50 ng-100 ng) was converted to cDNA using a high capacity cDNA reverse transcription kit (Applied Biosystems). cDNA was used in a standard qPCR reaction involving FAM conjugated gene specific primers and TaqMan Gene Expression Master Mix (Applied Biosystems). The following primers were used for qPCR: Gapdh (Mm99999915_m1), Tnni3 (Mm00437164_m1), Actn2 (Mm00473657_m1), Myh6 (Mm00440359_m1), Cacna1c (Mm00437917_m1), Mef2C (Mm01340482_m1), Tbx5 (Mm00803518_m1), Gata4 (Mm00484689_m1) and Hand2 (Mm00439247 m1).

[2] = target: T1, TLR3 (Mus musculus, UniProt Q99MB1); experiment: IL6 ELISA: TLR3 activity measured as IL6 secretion into the media; conditions: CU-CPT-4a added one day post-transfection
T1 construct: neonatal cardiac fibroblasts were transfected with negmiR or miR combo; endogenous in cells; host or cells: mouse (C57BL/6) neonatal cardiac fibroblasts, passage 2
T1 sequence (Q99MB1 26-905): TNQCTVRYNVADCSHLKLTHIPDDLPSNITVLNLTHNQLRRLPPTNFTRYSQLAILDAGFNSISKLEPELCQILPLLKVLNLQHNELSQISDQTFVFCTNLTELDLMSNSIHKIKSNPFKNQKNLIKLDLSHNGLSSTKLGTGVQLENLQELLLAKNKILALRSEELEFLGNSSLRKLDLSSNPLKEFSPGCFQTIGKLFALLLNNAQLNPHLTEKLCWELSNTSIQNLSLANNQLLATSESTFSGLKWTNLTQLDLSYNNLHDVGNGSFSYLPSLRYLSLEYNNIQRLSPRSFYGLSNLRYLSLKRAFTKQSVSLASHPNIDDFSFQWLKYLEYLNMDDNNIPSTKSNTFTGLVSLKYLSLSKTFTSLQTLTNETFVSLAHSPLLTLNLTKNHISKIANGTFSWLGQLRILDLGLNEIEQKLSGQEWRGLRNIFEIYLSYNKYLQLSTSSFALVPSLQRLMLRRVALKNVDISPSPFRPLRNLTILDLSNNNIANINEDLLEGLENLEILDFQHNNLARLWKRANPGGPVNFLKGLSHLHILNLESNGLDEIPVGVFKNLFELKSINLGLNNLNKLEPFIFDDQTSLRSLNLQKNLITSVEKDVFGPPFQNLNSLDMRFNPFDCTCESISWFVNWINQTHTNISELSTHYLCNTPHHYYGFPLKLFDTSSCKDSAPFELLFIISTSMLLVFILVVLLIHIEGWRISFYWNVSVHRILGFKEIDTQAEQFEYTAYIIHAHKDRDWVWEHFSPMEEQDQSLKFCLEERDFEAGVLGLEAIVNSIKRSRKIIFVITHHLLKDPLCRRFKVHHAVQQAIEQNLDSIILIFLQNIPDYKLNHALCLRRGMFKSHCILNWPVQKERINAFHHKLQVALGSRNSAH
Method: IL6 ELISA kits were from R&D Systems. Fresh media (1 ml) was added to the cells one day prior to assaying for IL6. Per manufacturer's instructions 50 ul of media was assayed and the amount of IL6 in pg/ml in the culture media was determined via a standard curve. The IL6 pg/ml value was then adjusted for the total volume of the media (1 ml) and the total cellular protein in each well to correct for differences in cell number.
To test this further we transfected cells with microRNAs and assessed TLR3 activity by measuring IL6 secretion into the media. IL6 secretion is an accepted measurement of the activity of TLRs, including TLR3 [30-37]. […] Targeted knockdown of TLR3 or Ikbkb inhibited miR combo induced IL6 secretion; further validating that miR combo activated the TLR3-NFκB pathway (FIG. 6B).

[3] = tested on: neonatal cardiac fibroblasts; experiment: Actn2 (α-sarcomeric actinin) immunofluorescence of reprogrammed fibroblasts
Method: as §1
Cells were fixed with 2% v/v paraformaldehyde (EMS) as described previously. Fixed cells were blocked in antibody buffer (5% w/v BSA, 0.1% v/v Tween-20, in PBS) for 1 hr at room temperature. Following blocking, cells were incubated overnight at 4° C. with a-sarcomeric actinin antibody (Sigma, A7811, 1:100) in antibody buffer. After the overnight incubation, cells were washed three times in antibody buffer. Following washing, cells were incubated with Alexa-Fluor conjugated secondary antibodies (Invitrogen, Goat Anti-mouse 594 nm) at a 1:500 dilution in antibody buffer for 1 hr at room temperature. Nuclei were stained by DAPI at 1 μg/ml for 30 minutes at room temperature in antibody buffer. Following washing in PBS to remove unbound complexes, immunofluorescence was measured using a Zeiss Axiovert 200 inverted microscope.

[4] = tested on: neonatal cardiac fibroblasts; experiment: Generating beating reprogrammed cardiomyocytes (count of beating colonies)
Method: Isolated mouse (C57BL/6) neonatal cardiac fibroblasts (passage 2) were seeded into 12-well dishes at […] in growth media. Twenty-four hours later growth media was removed and the cells transfected with negmiR or miR combo as described above. One day later, the transfection complexes were removed and media was replaced with a chemically defined reprogramming media[12] that contained 1 ug/ml Poly(I:C) (LMW). For the next four days, cells received fresh chemically defined reprogramming media containing 1 ug/ml Poly(I:C) (LMW) daily. After this period, the cells received chemically defined reprogramming media without Poly(I:C) (LMW) for a further 10 days. Media was replaced every other day. Beating colonies were identified with a Zeiss Axiovert 200 inverted microscope.

[5] = tested on: neonatal cardiac fibroblasts; experiment: qPCR of cardiomyocyte-lineage commitment factors (initiation phase of cardiac reprogramming); conditions: TLR3 agonist Poly(I:C) LMW for 3 days after transfection, FIGS. 2Bi-2Biv
Method: as §1
qPCR: Total RNA was extracted using Quick-RNA MiniPrep Kit according to the manufacturer's instructions (Zymo Research). […]

For “ICR2: 2′F pyrimidine-incorporated 5′ppp RNA, blunt-ended hairpin, SEQ ID NO: 30: ggaug cggua ccuga cagca ucc (GGAUGCGGUACCUGACAGCAUCC; 2'-fluoro at CU, RNA at AG, 5' {ppp}, backbone not given here; blunt-ended hairpin)”, the “cardiomyocyte maturation (expression of Actn2, Myh6, Tnni3, Cacna1c)” value [1] was “induced maturation; also recorded: activated cardiomyocyte maturation”.
With O=C(N[C@H](Cc1ccccc1)C(=O)O)c1sc2cc(F)ccc2c1Cl [CU-CPT-4a] the “effect of negmiR and miR combo upon IL6 secretion” value [2] was “completely ablated”, the “ability of miR combo to generate mature cardiomyocytes with organized sarcomeres” value ([3]; CU-CPT-4a 10 μM, anti-Actn2 staining, FIGS. 1Ci-1Ciii) was “completely inhibited” and the “effect of miR combo upon cardiomyocyte sarcomere gene expression” value ([1]; CU-CPT-4a 10 μM for 4 days after miR combo transfection, then 6 days growth media) was “completely abolished”. For the same molecule, the “miR combo reprogramming with respect to the expression of Myh6, Actn2, and Tnni3” value ([1]; CU-CPT-4a 10 μM for 4 days after transfection, then 10 days growth media, FIGS. 1Bi-1Biii) was “completely inhibited”.
For Poly(I:C), the “number of Actn2(+) cells that formed in response to miR combo treatment” value ([3]; Poly(I:C) LMW for 4 days, FIG. 7C) was “increased”, the sarcomere maturation ([3]; miR combo plus Poly(I:C), inserts of FIGS. 7Bi-7Bvi) was “enhanced” and the “effect of miR combo upon Myh6, Actn2 and Tnni3 expression” value ([1]; Poly(I:C) LMW for 4 days after miR combo transfection, then 10 days growth media) was “significantly enhanced”. For the same molecule, the “expression of Myh6, Actn2 and Tnni3 in the control negmiR samples” value ([1]; Poly(I:C) LMW for 4 days after negmiR transfection, then 10 days growth media) was “induced expression”, the “increase of the ability of miR combo to form spontaneously beating colonies” value ([4]; addition of Poly(I:C) (LMW) 1 ug/ml, colonies counted 14 days after transfection) was 3 fold and the “time at which mature beating colonies were observed” value ([4]; miR combo plus Poly(I:C), time after transfection) was “within one week”. The “expression of cardiomyocyte-commitment factors Gata4, Hand2, Tbx5 and Mef2C” value [5] was “no effect”.
With “ICR4: 5′ppp 2′F ssRNA comprising multiple stem-loops, SEQ ID NO: 37: ggaug cggua ccuga cagca uccua aacuc auggu ccaug uuugu ccaug gacca (GGAUGCGGUACCUGACAGCAUCCUAAACUCAUGGUCCAUGUUUGUCCAUGGACCA; 2'-fluoro at CU, RNA at AG, 5' {ppp}, backbone not given here; single strand with multiple stem-loops)” the “cardiomyocyte maturation (expression of Actn2, Myh6, Tnni3, Cacna1c)” value [1] was “activated cardiomyocyte maturation”.

Source: patent publication US11512290B2, “Compositions and methods for cellular reprogramming” (Duke University, priority 2018, dated 2022)
